Test results taken from US10736913B1, “Use of inosine for cancer immunotherapy” (IMMUNOSPARKLE BIOSCIENCE LLC, priority 2019, dated 2020).
Entries after “also recorded” stand apart in the source; their conditions may differ.

Legend:
4T1 tumors = test: 4T1 breast cancer tumor model in mice (tumor volume, weight); assay type: in vivo; details: 4T1 tumor-bearing Balb/c mice; inosine 400 mg/kg/day oral day 4 to 21; anti-CTLA4 100 μg + anti-PD-1 200 μg i.p. days 7, 10, 13, 16
Description: 4T1 cells were injected into the mammary fat pad of eight-week-old female Balb/c mice (2×10^5/mouse). […] Results are shown as mean±SEM. (*** indicates P<0.001).
4T1 cells were injected into the mammary fat pad of eight-week-old female Balb/c mice (2×10^5/mouse). […] Results are shown as mean±SEM. (** indicates P<0.01)

B16 tumors = test: B16 melanoma tumor model in mice (tumor volume, survival); details: B16 tumor-bearing C57BL/6 mice; inosine 400 mg/kg/day oral from day 4; anti-CTLA4 100 μg + anti-PD-1 200 μg i.p. days 7, 10, 13, 16
Description: B16 cells were injected subcutaneously into eight-week-old female C57BL/6 mice (2×10^5/mouse). Anti-CTLA4 antibody (100 μg per mouse) and anti-PD-1 antibody (200 μg per mouse) were injected i.p on days 7, 10, 13 and 16. 400 mg/kg body weight of inosine per day was orally administered to mice from day 4.
(§1) All the cell lines were confirmed to be mycoplasma free. Cells were cultured using DMEM (Corning) with 10% fetal bovine serum (Corning) and 1% Pen/Strep (Life Technologies). Cells were incubated in an incubator maintained at 37° C. and 5% CO2. 75-80% of confluent cells were harvested for orthotopic injection.
(§2) For the melanoma model, 2×10^5 B16 or B16-GM cells were harvested for orthotopic injection into the subcutaneous (s.c.) of C57BL/6J mice (6-8 weeks) using 0.25% Trypsin (Corning) and suspended in DPBS (Gibco).
(§3) Treatments were given as single agents or in combination with the following regimen. Inosine (Sigma-Aldrich) was dissolved in sterilized water to yield a concentration of 40 mg/ml, and administered by oral gavage once a day at 400 mg/kg body weight. Treatment was initiated on day 4 and ended on day 21 post tumor implant. Control groups received vehicle (water) by oral gavage. […] Tumors were measured every third day with a caliper, and measurements were assessed manually by assessing the longest dimension (length) and the longest perpendicular dimension (width). […]

B16-GM tumors = test: B16-GM metastatic melanoma tumor model in mice (tumor volume, weight, lung metastasis, survival)
Description: B16-GM cells were injected subcutaneously into eight-week-old female C57BL/6 mice (2×10^5/mouse). Anti-CTLA4 antibody (100 μg per mouse) and anti-PD-1 antibody (200 μg per mouse) were injected i.p on days 7, 10, 13 and 16. 400 mg/kg of inosine per day was orally administered to mice from day 4 to day 21.
as §1, §2, §3

[1] = system: MHC-I (H2kb) on B16 cells; test: Flow cytometry of membrane MHC-I (H2kb) expression; assay type: cell-based, murine; details: inosine at 500
Description: B16 cells were stained for flow cytometry to determine the membrane MHC-I expression level.
For MHC-I expression flow analysis on the tumor cell, one million cells per condition were stained with the PE anti-mouse H-2Kb antibody (Biolegend) diluted in PBS plus 2% FBS and kept for 30 min on ice. Matched isotype control Ab was performed as a control.

[2] = system: H2k1, H2d1, Stat1, Stat3, Irf1 mRNA in B16 cells; test: Reverse transcription quantitative PCR of antigen presentation-related and IFN signaling genes; assay type: cell-based, murine; details: inosine at 500
Description: Tumor cells cDNA was prepared using 1 μg RNA with the qScript cDNA Synthesis Kit (Bio-Rad). SYBR green-based qPCR was performed using murine primers to H2k1, H2d1, Stat1, Stat3, and Irf1. Relative copy number was determined by calculating the fold-change difference in the gene of interest relative to 18sRNA (ΔCt=Ct gene of interest−Ct 18sRNA) and reported as relative mRNA expression (ΔΔCt=2^−(ΔCt sample−ΔCt control)) or fold change. qPCR was performed on an Applied Biosystems 7300 machine.

[3] = background; cited from earlier work
[4] = system: CD4+ and CD8+ T cells in B16 tumors; test: Flow cytometry of tumor-infiltrating T lymphocytes in B16 tumors; assay type: in vivo, C57BL/6 mice; details: n=5 tumors
Description: Tumors from the indicated treatment group were mechanically minced for the isolation of infiltrating lymphocytes. Cells were counted and stained for flow cytometry to determine the percentage of CD4^+ and CD8^+ T lymphocytes in total CD45^+ immune cells.
Results are shown as mean±SEM (* P<0.05; ** P<0.01) and statistics were calculated using the unpaired t-test with Welch's correction.
Mouse tumor samples were minced with scissors before incubation with dissociation buffer (2 mg/ml collagenase type A, 0.02 mg/ml DNase in RPMI1640 containing 5% FBS, PenStrep) with agitation at 37° C. for 45 min. Tumor samples were homogenized by repeated pipetting and filtered through a 70-μm nylon filter (BD Biosciences) in RPMI supplemented with 10% FBS to generate single-cell suspensions. Cell suspensions were washed once with complete RPMI. After lysis of red blood cells, single-cell suspensions were blocked with anti-CD16/32 (Biolegend) for 20 min on ice and then incubated with appropriate antibodies for 30 min on ice: anti-CD45-APC-Cy7, CD3-FITC, CD8-PercP-Cy5.5, CD4-PE. Dead cells and doublets were excluded on the basis of forward and side scatter and Fixable Viability Dye eFluor 450 (eBioscience). Flow cytometry was performed on FACSCanto II (BD Biosciences), and data were analyzed using FlowJo (TreeStar).

B16 tumor cells [5] = test: MTT cell proliferation assay; assay type: cell-based, murine; details: B16 cells in vitro; inosine 10, 50, 200 μM; 0-96 h
Description: MTT assays were used to determine the cell viability of B16 tumor cells treated with control vehicle; the concentration of inosine administered is indicated, where “Ino-10” means 10 μM Inosine; “Ino-50” means 50 μM Inosine and “Ino-200” means 200 μM Inosine.
Cell proliferation ability was examined at 0, 24, 48, 72 h and 96 h using a Cell Proliferation Reagent Kit I (MTT; Sigma) according to the manufacturer's instruction. Cells were seeded in a 96-well plate in triplicate at a concentration of 2×10^3 cells/well. On the indicated day, the medium was removed and the MTT solution was added to the wells. Four hours later, DMSO was added and the cells were further incubated for 10 min with gentle shaking at 37° C. Finally, the optical density of each well was measured using a microplate reader at 550 nm.

B16 tumor cells [6] = test: Cell apoptosis assay (Annexin V / 7-AAD flow cytometry); assay type: cell-based, murine; details: B16 cells in vitro; inosine same concentrations as FIG. 2A; 48 h
Description: Tumor cells were seeded in a 6-well plate and grown for 24 h. Cells were then treated with control (vehicle) or 1, 10, 50, 100 μM inosine. After 48 h of treatment, cells were harvested by trypsinization, resuspended at 10^6 cells/ml in 1× Annexin V Binding Buffer (BD Biosciences), and 100 μl (10^5 cells) were added to each FACS tube. Cells were stained with 7-AAD (5 μl/100 μl, BD Biosciences, to assess cell death), and APC-conjugated Annexin V (5 μl/100 μl, BD Biosciences, to assess apoptosis) for 30 min and analyzed by BD FACSCanto II. FACS data were acquired using FACSDiva (BD Biosciences) and analyzed using FlowJo software (Tree Star) and the percentage of APC^+ cells obtained.

OC[C@H]1O[C@@H](n2cnc3c(O)ncnc32)[C@H](O)[C@@H]1O [inosine, 9-[(2R,3R,4S,5R)-3,4-dihydroxy-5-(hydroxymethyl)oxolan-2-yl]-1H-purin-6-one]
tumor volume / tumor growth (4T1 tumors): does not significantly affect tumor growth | tumor volume / tumor growth (B16 tumors): inhibited tumor growth in vivo; also recorded: enhanced the antitumor efficacy of ICB | tumor volume / tumor growth (B16-GM tumors; B16-GM tumor-bearing C57BL/6 mice, inosine 400 mg/kg/day oral day 4 to 21, anti-CTLA4 100 μg + anti-PD-1 200 μg i.p. days 7, 10, 13, 16): reduced tumor size | lung metastasis (metastatic nodules) (B16-GM tumors; B16-GM tumor-bearing mice, day 18): significant reduction in lung metastasis | membrane MHC-I (H2kb) expression [1]: enhances the expression of MHC-I; also recorded: increases the membrane protein level of MHC-I | relative mRNA expression of antigen presentation-related genes (H2k1, H2d1) and IFN signaling genes (Stat1, Stat3, Irf1) [2]: stimulates interferon signaling and antigen presentation-related genes; also recorded: increases the expression of antigen presentation-related genes and IFN signaling genes | half-life [3]: approximately 15 h | CD8+ T cell population in tumors [4]: increased the cytotoxic CD8^+ T infiltration | proliferation / cell viability (MTT) (B16 tumor cells [5]): didn't inhibit tumor cell proliferation; also recorded: doesn't inhibit the proliferation | apoptotic tumor cells (B16 tumor cells [6]): didn't inhibit tumor cell proliferation and promote apoptosis; also recorded: doesn't induce the apoptosis
